Test systems include HCT-15; SK-MEL-5; ACHN; RXF 393; M14; NCI-H23; PC-3; RPMI-8226; K562; HOP-92; HCC 2998; DU-145; SF-539; MDA-MB-231; TK-10; Hs-578T; A498; NCI-H460; OVCAR-3.
Assay in all cases: NCI anticancer screen, dose series, 48 h

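Results reflect a 48-hour exposure of cells in 96-well plates to compound at five concentrations. Abbreviation: GI50, concentration required for 50% inhibition of growth.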 Activity calls are given as the source filed them. Cut-off read from the data, not from the text of the source: active = GI50 up to about 1.1 µM and inactive = higher.

Consider `CC1(C)CC2(C)OC(=N)C1(C#N)C2(C#N)C#N` (stereo not given), for which the GI50 in the test with HCT-15 is 2.36 µM; with SK-MEL-5, 8.83 µM (inactive); with ACHN, 7.64 µM (inactive); in the test with RXF 393, 11.6 µM (inactive); with M14, 11.6 µM (inactive); in the test on NCI-H23, 8.32 µM (inactive). Also, the GI50 in the test on PC-3 was 16.1 µM (inactive); with RPMI-8226, 5.65 µM (inactive); with K562, 6.93 µM (inactive); in the test with HOP-92 it was 1.57 µM (inactive); with HCC 2998, 12.1 µM (inactive); in the test on DU-145, 14.6 µM (inactive). Moreover, the GI50 in the test with SF-539 was 12.1 µM (inactive); with MDA-MB-231, 8.83 µM (inactive); in the test with TK-10, 10.8 µM (inactive); in the test on Hs-578T it was 13 µM (inactive); in the test on A498, 15.2 µM (inactive).
With `O=C(COC(=O)c1cccc2c(=O)c3ccccc3[nH]c12)Nc1ccc(S(=O)(=O)Nc2ncccn2)cc1`, the GI50 in the test on HCT-15 is above 100 µM; in the test on NCI-H460, > 100 µM (inactive); with OVCAR-3, 22.6 µM (inactive); in the test with SK-MEL-5, 82 µM (inactive); in the test on ACHN, 36.8 µM (inactive); in the test on RXF 393, 43.3 µM (inactive). Moreover, the GI50 in the test with M14 is 93.1 µM (inactive); in the test on NCI-H23 it was 37.5 µM (inactive); with RPMI-8226, 51.4 µM (inactive); in the test on K562 it was 38.5 µM (inactive); in the test with HOP-92, 15.6 µM (inactive); in the test on HCC 2998 it was 38.8 µM (inactive). Besides, the figures for the GI50 in the test on SF-539, in the test with TK-10 and in the test with A498 were 20.5 µM (inactive), 39.4 µM (inactive) and 95.5 µM (inactive), respectively.
On to `COc1c(C)c2c(c(O)c1C/C=C(\C)CCC(=O)O)C(=O)OC2` [MYCOPHENOLIC ACID], for which the GI50 was 0.423 µM in the test with HCT-15; 0.488 µM (active) in the test on NCI-H460; 2.91 µM (inactive) with OVCAR-3; 1.02 µM (active) in the test on SK-MEL-5; 1.75 µM (inactive) with ACHN; 2.78 µM (inactive) in the test on RXF 393. In addition, the GI50 is 1.58 µM (inactive) in the test on M14; 0.471 µM (active) in the test with NCI-H23; 1.1 µM (active) in the test on PC-3; 1.7 µM (inactive) in the test with RPMI-8226; 0.396 µM (active) with K562; 4.68 µM (inactive) with HOP-92. The GI50 is 3.94 µM (inactive) with HCC 2998; > 100 µM (inactive) in the test with DU-145; 1.46 µM (inactive) in the test with SF-539; 2 µM (inactive) with MDA-MB-231; 17.4 µM (inactive) with TK-10; 2.51 µM (inactive) with Hs-578T. For the same compound, the GI50 in the test on A498 was > 100 µM (inactive).
On to `CNc1ccc([S+]([O-])Nc2ccccc2)cc1` (stereo not given), for which the GI50 in the test with HCT-15 was 43.9 µM; in the test with NCI-H460, 55.8 µM (inactive); in the test with OVCAR-3 it was 51.4 µM (inactive); with SK-MEL-5, 25.8 µM (inactive); in the test with ACHN it was 84.7 µM (inactive); in the test on NCI-H23, 55.7 µM (inactive). Besides, the GI50 is 39.8 µM (inactive) in the test on RPMI-8226; 34.8 µM (inactive) with K562; 23.1 µM (inactive) with HCC 2998; > 100 µM (inactive) with DU-145; > 100 µM (inactive) in the test on SF-539; 46.1 µM (inactive) in the test with MDA-MB-231. Also, the values for the GI50 with TK-10 and with Hs-578T were > 100 µM (inactive) and 37.7 µM (inactive), respectively.
Consider `COP(C)(=O)C1=CCN(C(=O)OCC[Si](C)(C)C)CC1` (stereo not given), for which the GI50 in the test with HCT-15 is above 100 µM; with NCI-H460, > 100 µM (inactive); in the test with OVCAR-3, > 100 µM (inactive); in the test with SK-MEL-5, > 100 µM (inactive); in the test with ACHN, > 100 µM (inactive); with RXF 393 it was > 100 µM (inactive). Moreover, the GI50 in the test with M14, with NCI-H23, in the test on PC-3, with RPMI-8226, in the test with HOP-92 and with HCC 2998 was > 100 µM (inactive) in each case. The GI50 with DU-145, in the test with MDA-MB-231, in the test with TK-10, in the test with Hs-578T and in the test with A498 was > 100 µM (inactive) in each case.
As for `O=C(OCN1C(=O)C2C3C=CC(C2C1=O)C1C2C(=O)N(COC(=O)C4CCCN4)C(=O)C2C31)C1CCCN1` (stereo not given), the GI50 in the test on HCT-15 was 25 µM; in the test on NCI-H460 it was 22.6 µM (inactive); in the test with OVCAR-3, > 100 µM (inactive); in the test with SK-MEL-5, 62.5 µM (inactive); in the test with ACHN, > 50.5 µM (inactive); in the test with RXF 393, > 76.6 µM (inactive). Besides, the GI50 in the test on M14 was 71.6 µM (inactive); in the test on NCI-H23, > 100 µM (inactive); with RPMI-8226, 24.8 µM (inactive); in the test with K562, > 67.9 µM (inactive); with HOP-92 it was > 100 µM (inactive); in the test with HCC 2998, > 100 µM (inactive). For the same compound, the GI50 is 47.8 µM (inactive) in the test on SF-539, > 100 µM (inactive) in the test with TK-10 and > 100 µM (inactive) in the test on A498.
For `Cc1ccc(S(=O)(=O)N(/N=C/C=C/c2ccccc2)c2nnc(-c3ccccc3)c(-c3ccccc3)n2)cc1`, the GI50 was 25.6 µM in the test with HCT-15; 21.7 µM (inactive) with NCI-H460; 20.1 µM (inactive) in the test on OVCAR-3; 14.9 µM (inactive) in the test with SK-MEL-5; 29.8 µM (inactive) in the test with ACHN; 19 µM (inactive) with RXF 393. For the same compound, the GI50 with M14 is 20.8 µM (inactive); in the test with NCI-H23, 15.8 µM (inactive); in the test on RPMI-8226, 11.3 µM (inactive); with K562, 15 µM (inactive); in the test on HOP-92, 19 µM (inactive); with HCC 2998, 13.3 µM (inactive). Further, the GI50 was 16.1 µM (inactive) in the test on SF-539, 24.7 µM (inactive) in the test on TK-10 and 36.8 µM (inactive) in the test with A498.
As for `O=C(O)c1cc(-c2ccc3c(O)c(O)ccc3c2)ccc1O`, the GI50 was 41.3 µM with HCT-15; > 7.5 µM (inactive) with NCI-H460; > 75 µM (inactive) with OVCAR-3; 34.2 µM (inactive) in the test on SK-MEL-5; > 75 µM (inactive) in the test on ACHN; 17.4 µM (inactive) in the test on RXF 393. The GI50 in the test on M14 was 20.7 µM (inactive); with NCI-H23, 43.6 µM (inactive); in the test on PC-3, > 75 µM (inactive); in the test on RPMI-8226, 15.9 µM (inactive); with K562, 13.1 µM (inactive); in the test with HCC 2998, > 75 µM (inactive). Besides, the GI50 with DU-145 is > 75 µM (inactive); with SF-539, > 75 µM (inactive); in the test with MDA-MB-231, 26.1 µM (inactive); in the test with TK-10, > 75 µM (inactive); in the test with Hs-578T, > 75 µM (inactive); with A498, 72.9 µM (inactive).
Take `CSc1nc(NC2OC(COC(C)=O)C(OC(C)=O)C(OC(C)=O)C2OC(C)=O)c(/N=C/C=N/c2c(NC3OC(COC(C)=O)C(OC(C)=O)C(OC(C)=O)C3OC(C)=O)nc(SC)[nH]c2=O)c(=O)[nH]1` (stereo not given): the GI50 in the test on HCT-15 was above 100 µM; in the test on NCI-H460, > 100 µM (inactive); with OVCAR-3 it was > 100 µM (inactive); with SK-MEL-5, > 100 µM (inactive); in the test on ACHN, > 100 µM (inactive); in the test with RXF 393, > 100 µM (inactive). The GI50 in the test with M14, in the test on NCI-H23, with RPMI-8226, in the test on K562, in the test on HOP-92 and in the test on HCC 2998 was > 100 µM (inactive) throughout. For the same compound, the GI50 in the test on SF-539, in the test with TK-10 and in the test on A498 was > 100 µM (inactive) throughout.
For the compound `COC1=CC(=O)C(O)=C(CC2(C)C(C)CCC3(C)C2CCCC3(C)C)C1=O` (stereo not given), the GI50 with HCT-15 is 3.3 µM; in the test on NCI-H460 it was 1.88 µM (inactive); in the test on OVCAR-3, 5.43 µM (inactive); in the test on SK-MEL-5, 3.76 µM (inactive); with ACHN it was 3.89 µM (inactive); in the test with RXF 393, 2.31 µM (inactive). Moreover, the GI50 is 2.18 µM (inactive) in the test with M14; 2.84 µM (inactive) in the test with NCI-H23; 2.96 µM (inactive) in the test with RPMI-8226; 2.7 µM (inactive) with K562; 2.38 µM (inactive) with HOP-92; 3.6 µM (inactive) in the test with HCC 2998. Also, the figures for the GI50 with SF-539, in the test with TK-10 and with A498 were 2.84 µM (inactive), 4.97 µM (inactive) and 10.1 µM (inactive), respectively.
As for `CC1(Br)C(=O)NC(=O)N(C2CC(N=[N+]=[N-])C(CO)O2)C1N=[N+]=[N-]` (stereo not given), the GI50 in the test on HCT-15 was above 100 µM; with NCI-H460 it was > 100 µM (inactive); in the test on OVCAR-3 it was > 100 µM (inactive); in the test on SK-MEL-5, > 100 µM (inactive); in the test on ACHN it was > 100 µM (inactive); in the test with RXF 393, 91.8 µM (inactive). For the same compound, the GI50 is > 100 µM (inactive) in the test with M14; > 100 µM (inactive) in the test with NCI-H23; 92.5 µM (inactive) in the test with RPMI-8226; > 100 µM (inactive) in the test on K562; > 100 µM (inactive) in the test with HOP-92; > 100 µM (inactive) with HCC 2998. Further, the GI50 with SF-539, with TK-10 and in the test on A498 was > 100 µM (inactive) each time.
Regarding `CC1(C)C=N[N+]2(C)C3C=CC(CC3)C12` (stereo not given), the GI50 in the test with HCT-15 was above 100 µM; with NCI-H460, > 100 µM (inactive); in the test with OVCAR-3, > 100 µM (inactive); in the test on SK-MEL-5, > 100 µM (inactive); in the test with ACHN it was > 100 µM (inactive); in the test on RXF 393 it was > 100 µM (inactive). For the same compound, the GI50 in the test on M14, in the test with NCI-H23, in the test on RPMI-8226, in the test with K562, with HOP-92 and in the test with HCC 2998 was > 100 µM (inactive) throughout. The GI50 in the test with SF-539, in the test with TK-10 and in the test with A498 was > 100 µM (inactive) each time.

For the origin of these results see ChEMBL document CHEMBL1201862, “PubChem BioAssay data set” (2004).
